Source: patent US6653478B2, “Substituted benzimidazol-2-ones as vasopressin receptor antagonists and neuropeptide Y modulators” (Ortho-McNeil Pharmaceutical, Inc., priority 2000, dated 2003)

Tests used:
human V1a receptor = human V1a receptor (Homo sapiens, UniProt P37288); test: V1a binding assay (3H-AVP displacement, HEK-293 membranes); design: expressed in transfected cells; host or cells: HEK-293 (membranes); conditions: for inhibition at 1 µM: 1.0 μM compound, read-out: V1a@1.0, % Inh
In short: (§1)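 Read-out is filter-retained 3H-AVP, counted by scintillation after washing with cold saline/0.05% Tween 20. Binding ran 1 hour at room temperature in pH 7.5 buffer with protease inhibitors; 1.25 μM unlabelled AVP gave non-specific binding.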

human V1b receptor = target: T1, human V1b receptor (Homo sapiens, UniProt P47901); test: V1b binding assay (3H-AVP displacement, HEK-293 membranes); design: expressed in transfected cells; host or cells: HEK-293 (membranes); conditions: for inhibition at 1 µM: 1.0 μM compound, read-out: V1b@1.0, % Inh; for inhibition at 10 µM: 10 μM compound, read-out: V1b % Inh @10
T1 sequence (P47901 1-424): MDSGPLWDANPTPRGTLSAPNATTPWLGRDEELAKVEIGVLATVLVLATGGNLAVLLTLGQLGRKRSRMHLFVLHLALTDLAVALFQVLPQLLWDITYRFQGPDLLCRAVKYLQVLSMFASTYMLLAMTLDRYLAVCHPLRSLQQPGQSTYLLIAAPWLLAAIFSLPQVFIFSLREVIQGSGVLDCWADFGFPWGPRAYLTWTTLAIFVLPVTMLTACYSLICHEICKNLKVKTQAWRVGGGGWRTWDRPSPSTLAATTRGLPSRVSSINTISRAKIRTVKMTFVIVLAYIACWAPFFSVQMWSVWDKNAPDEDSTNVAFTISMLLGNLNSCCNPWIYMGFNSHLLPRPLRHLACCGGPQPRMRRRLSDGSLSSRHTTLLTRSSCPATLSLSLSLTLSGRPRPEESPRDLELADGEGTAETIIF
In short: as §1

human V2 receptor = human V2 receptor (Homo sapiens, UniProt P30518); test: V2 binding assay (3H-AVP displacement, HEK-293 membranes); design: expressed in transfected cells; host or cells: HEK-293 (membranes); conditions: 1.0 μM compound; read-out: V2@1.0, % Inh
In short: as §1

NPY2 receptors = target: T2, NPY2 receptors (Homo sapiens, UniProt P49146); test: Neuropeptide Y receptor binding assay (125I-PYY, KAN-TS cell membranes); conditions: 10 μM compound; read-out: NPY-2@10, % Inh
T2 construct: Cell Membranes from KAN-TS cells having NPY2 receptors; endogenous in cells; host or cells: KAN-TS cells (membranes)
T2 sequence (P49146 1-381): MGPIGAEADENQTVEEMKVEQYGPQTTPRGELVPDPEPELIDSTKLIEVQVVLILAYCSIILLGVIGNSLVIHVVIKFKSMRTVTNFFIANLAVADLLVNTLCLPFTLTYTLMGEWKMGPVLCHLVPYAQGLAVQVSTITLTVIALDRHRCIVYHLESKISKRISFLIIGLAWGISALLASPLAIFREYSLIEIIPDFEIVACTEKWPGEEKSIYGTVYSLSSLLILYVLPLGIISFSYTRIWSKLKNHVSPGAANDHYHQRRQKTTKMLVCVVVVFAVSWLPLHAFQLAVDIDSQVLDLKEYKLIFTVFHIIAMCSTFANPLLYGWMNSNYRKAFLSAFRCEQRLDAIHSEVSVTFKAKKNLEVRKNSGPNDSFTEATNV
Description: Neuropeptide Y Receptor Binding Assay
Load 96-well RIA racks with RIA vials (Sarstedt, cat. #73.1055)
Prepare membranes—use 2×15 cm confluent plates/96-well assay plate
Add 14 mls Homogenization buffer/cell pellet
Homogenize at high speed for 15 seconds
Transfer to 15 ml conical tube and spin 5′ at 4° C. at setting 3 in RT6000 centrifuge
Transfer supernatant to 30 ml Corex tube
Balance and spin 25′ at 15,000 rpm at 4° C.
Resuspend pellet in 10 mls Binding buffer
Homogenize at high speed for 15 sec.
Bring volume up to 50 mls in Binding buffer (25 mls/2×96-well plates)
Keep on ice until use or freeze in aliquots (2 plates/tube) in −70° C.
Prepare ^125I-PYY (for 2×96-well compound plates)
Dilute 50 uCi ^125I-PYY in 1 ml H2O
Add 0.4 ml 10% BSA to 20 ml Binding buffer
Add 150 μl ^125I-PYY, mix well
NSB (1 μM PYY final conc.): 40 μl PYY (100 μM stock)+60 μl 30% DMSO in HEPES=40 μM PYY—add 5 μl/well
Total Binding: Add 5 μl/well of Compound Diluent
Add 5 μl compound (final conc. @10 μM)
Incubate at R.T. for 1 hr.
Spin plates for 10′ at setting 9 in RT6000 centrifuge
Aspirate supernatant from tubes, add 300 μl PBS and aspirate again.
After plates are washed and aspirated, put individual tubes in 12×75 mm polypropylene carrier tubes. Count on gamma counter.

Chain of human V1a receptor (P37288 whole entry): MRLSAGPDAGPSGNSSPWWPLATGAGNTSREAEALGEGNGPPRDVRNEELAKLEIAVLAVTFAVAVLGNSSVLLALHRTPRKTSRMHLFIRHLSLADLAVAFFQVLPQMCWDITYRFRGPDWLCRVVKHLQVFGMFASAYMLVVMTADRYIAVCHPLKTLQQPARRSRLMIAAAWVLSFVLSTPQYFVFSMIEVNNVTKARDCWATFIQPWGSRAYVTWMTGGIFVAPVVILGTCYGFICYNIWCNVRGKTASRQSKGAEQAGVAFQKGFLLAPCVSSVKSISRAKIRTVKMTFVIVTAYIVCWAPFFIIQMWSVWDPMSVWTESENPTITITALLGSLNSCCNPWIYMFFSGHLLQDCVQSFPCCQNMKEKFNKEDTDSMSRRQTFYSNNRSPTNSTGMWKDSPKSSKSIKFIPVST
Chain of human V2 receptor (P30518 whole entry): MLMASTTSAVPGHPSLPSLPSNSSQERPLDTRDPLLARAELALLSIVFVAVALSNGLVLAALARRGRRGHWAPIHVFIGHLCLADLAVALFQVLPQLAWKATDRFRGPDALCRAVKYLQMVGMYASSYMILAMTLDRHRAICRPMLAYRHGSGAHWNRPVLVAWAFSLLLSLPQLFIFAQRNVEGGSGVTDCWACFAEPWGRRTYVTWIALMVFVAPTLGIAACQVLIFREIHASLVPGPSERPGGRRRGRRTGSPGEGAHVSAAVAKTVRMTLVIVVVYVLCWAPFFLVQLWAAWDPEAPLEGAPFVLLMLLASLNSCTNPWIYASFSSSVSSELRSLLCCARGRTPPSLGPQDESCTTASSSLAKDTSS

Row | Structure (SMILES) | IC50 (human V1a receptor) [nM] | inhibition at 1 µM (human V1a receptor) [%] | inhibition at 1 µM (human V1b receptor) [%] | inhibition at 1 µM (human V2 receptor) [%] | inhibition at 10 µM (NPY2 receptors) [%] | inhibition at 10 µM (human V1b receptor) [%] | IC50 (human V1b receptor) [nM]
1 | O=c1[nH]c2ccccc2n1C1CCN(C(=S)NCCc2ccccc2)CC1 [Compound 22] |  | 45 |  | 4 | 11 | 0 | 
2 | O=c1n(Cc2ccccc2)c2ccccc2n1C1CCN(C(=S)NC(c2ccccc2)c2ccccc2)CC1 [Compound 37, 1-(N1-Piperidinocarbothioyldiphenylmethylamino-4-yl)-3-benzyl-1,3-dihydrobenzimidazol benzimidazol-2-one] |  | 5 |  | 2 | 0 | 8 | 
3 | O=C(NC(=S)N1CCC(n2c(=O)[nH]c3ccccc32)CC1)c1ccccc1 [Compound 8] |  | 55 |  | 10 | 5 | 13 | 
4 | O=c1[nH]c2ccccc2n1C1CCN(C(=S)NCc2ccc(Cl)cc2)CC1 [Compound 28] |  | 22 |  | 0 | 24 | 3 | 
5 | CCOC(=O)CCn1c(=O)n(C2CCN(C(=S)NC(c3ccccc3)c3ccccc3)CC2)c2ccccc21 [Compound 60, 1-[(N1-Piperidinocarbothioyldiphenylmethylamino)-4-yl]-3-(2-carboethoxyethyl)-1,3-dihydro-benzimidazol-2-one] |  | 49 |  | 0 | 35 | 19 | 
6 | CN(C)c1ccc(CNC(=S)N2CCC(n3c(=O)[nH]c4ccccc43)CC2)cc1 [Compound 24] |  | 19 |  | 9 | 12 | 0 | 
7 | O=C(O)CCn1c(=O)n(C2CCN(C(=S)NC(c3ccccc3)c3ccccc3)CC2)c2ccccc21 [Compound 61, 1-[(N1-Piperidinocarbothioyldiphenylmethylamino)-4-yl]-3-(2-carboxyethyl)-1,3-dihydrobenzimidazol-2-one] |  | 17 |  | 0 | 90 | 22 | 
8 | COc1cc(NC(=S)N2CCC(n3c(=O)[nH]c4ccccc43)CC2)cc(OC)c1OC [Compound 6] |  | 20 |  | 9 | 16 | 0 | 
9 | O=c1[nH]c2ccccc2n1C1CCN(C(=S)NCc2cccnc2)CC1 [Compound 29] | 1900 |  |  | 2 | 11 | 0 | 
10 | O=c1[nH]c2ccccc2n1C1CCN(C(=S)NC(Cc2ccccc2)c2ccccc2)CC1 (stereo not shown) [Compound 32] |  | 42 |  | 9 | 26 | 4 | 

Results, then the compound that gave them:

Row | IC50 (human V1a receptor) [nM] | inhibition at 1 µM (human V1a receptor) [%] | inhibition at 1 µM (human V1b receptor) [%] | inhibition at 1 µM (human V2 receptor) [%] | inhibition at 10 µM (NPY2 receptors) [%] | inhibition at 10 µM (human V1b receptor) [%] | IC50 (human V1b receptor) [nM] | Structure (SMILES)
11 | 61 | 48 | 29 | 19 | 13 |  |  | COc1ccccc1NC(=S)N1CCC(n2c(=O)n(CCCN3CCCCC3)c3ccccc32)CC1 [Compound 119, 1-[(N1-piperidinocarbothioyl-2-methoxyphenylamino)-4-yl]-3-(3-N-piperidinylpropyl)-1,3-dihydrobenzimidazol-2-one]
12 |  | 68 | 33 | 8 | 78 |  |  | CN1CCCC1CCn1c(=O)n(C2CCN(C(=O)NC(c3ccccc3)c3ccccc3)CC2)c2ccccc21 (stereo not shown) [Compound 94]
13 | 34 |  | 35 | 0 | 14 |  |  | O=C(NC(c1ccccc1)c1ccccc1)N1CCC(n2c(=O)n(CCCN3CCCCC3)c3ccccc32)CC1 [Compound 97, 1-[(N1-piperidinocarbonylbiphenylmethylamino)-4-yl]-3-(3-N-piperidinylpropyl)-1,3-dihydrobenzimidazol-2-one]
14 | 22 |  |  | 0 | 85 |  | 179 | CN(CCCn1c(=O)n(C2CCN(C(=S)NC(c3ccccc3)c3ccccc3)CC2)c2ccccc21)C1CCCCC1 [Compound 98, 1-[(N1-piperidinocarbothioylbiphenylmethylamino)-4-yl]-3-(3-N,N-methylcyclohexylaminopropyl)-1,3-dihydrobenzimidazol-2-one]
15 |  | 34 | 10 | 0 | 8 |  |  | O=C(NCc1ccccc1F)N1CCC(n2c(=O)n(CCCN3CCCC3)c3ccccc32)CC1 [Compound 89]
16 |  | 85 | 47 | 18 | 25 |  |  | C[C@H](NC(=S)N1CCC(n2c(=O)n(CCCN3CCCCC3)c3ccccc32)CC1)c1ccccc1 [Compound 116, 1-[(N1-piperidinocarbonthioyl-R-(−)-alpha-methylbenzylamino)-4-yl]-3-(3-N-piperidinylpropyl)-1,3-dihydrobenzimidazol-2-one]
17 | 162 |  | 23 | 2 | 0 |  |  | O=C(NC(c1ccccc1)c1ccccc1)N1CCC(n2c(=O)n(CCCN3CCOCC3)c3ccccc32)CC1 [Compound 95, 1-[(N1-piperidinocarbonylbiphenylmethylamino)-4-yl]-3-(3-morpholinopropyl)-1,3-dihydrobenzimidazol-2-one]
18 |  | 13 | 20 | 11 | 26 |  |  | O=c1n(CCCN2CCCCC2)c2ccccc2n1C1CCN(C(=S)Nc2ccccc2F)CC1 [Compound 115, 1-[(N1-piperidinocarbonthioyl-2-fluorophenylamino)-4-yl]-3-(3-N-piperidinylpropyl)-1,3-dihydrobenzimidazol-2-one]
19 | 579 |  | 37 | 16 | 41 |  |  | O=c1n(CCCO)c2ccccc2n1C1CCN(C(=S)NC(c2ccccc2)c2ccccc2)CC1 [Compound 108, 1-[(N1-piperidinocarbothioylbiphenylmethylamino)-4-yl]-3-(3-hydroxypropyl)-1,3-dihydrobenzimidazol-2-one]
20 |  | 0 |  | 0 | 0 | 29 |  | O=C(NCc1ccccc1)N1CCC(n2c(=O)[nH]c3ccccc32)CC1 [Compound 74]
21 | 44 |  | 47 | 2 | 79 |  |  | CCOC(=O)C1CCN(CCCn2c(=O)n(C3CCN(C(=S)NC(c4ccccc4)c4ccccc4)CC3)c3ccccc32)CC1 [Compound 83, 1-[(N1-piperidinocarbothioylbiphenylmethylamino)-4-yl]-3-[3-(4-ethylcarboxypiperidine)propyl]-1,3-dihydrobenzimidazol-2-one]
